Measurements as given in patent US10849907B2, “Imidazopyridine derivatives and the use thereof as medicament” (Boehringer Ingelheim International GmbH, priority 2017, dated 2020).

How the values were obtained:
NMDA NR1/NR2B receptor = target: T1, NMDA NR1/NR2B receptor (Homo sapiens, UniProt Q05586+Q13224); assay: In vitro NMDA NR1/NR2b cell assay (FLIPR, intracellular calcium induced by glycine/glutamate); format: cell-based; conditions: HEK293 cells expressing NMDA NR1/NR2B, 20 μM glycine, 1 μM glutamate, compounds of the invention (Table 1)
T1 construct: host or cells: HEK293, tetracycline-inducible expression
Description: A human HEK293 cell line with tetracyclin-inducible expression of NMDA NR1/NR2B receptor was used as a test system for compound efficacy and potency. The cell line was purchased from ChanTest, Catalog # CT6121. Compound activity was determined by measuring the effect of compounds on intracellular calcium concentration induced by glycine/glutamate agonism in a FLIPRtetra system (Molecular Devices).
The cells were obtained as frozen cells in cryo-vials and stored until use at −150° C. Cells were grown in culture medium (DMEM/F12, 10% FBS, 5 μg/mL Blasticidin, 150 μg/mL Zeozin, 500 μg/mL Geneticin). […] For sub-culturing the cells were detached from flasks by Versene. For the assay, cells were detached, washed twice with induction medium (DMEM/F12 without glutamine, 10% FBS, 2 μg/mL Tetracycline, 2 mM Ketamine) and seeded to 384 well pure coat amine plates (BD 359324, 50000 cells per well in 50 μl) 48 h prior to assay in induction medium.
The test compounds were dissolved in 100% DMSO at a concentration of 10 mM and in a first step diluted in DMSO to a concentration of 5 mM, followed by serial dilution steps in 100% DMSO. Dilution factor and number of dilution steps may vary according to needs. Typically 8 different concentrations by 1:5 dilutions were prepared in duplicate, further intermediate dilutions (1:37.5) of the substances were carried out with aqueous assay buffer (137 mM NaCl, 4 mM KCl, 1.8 mM CaCl, 10 mM HEPES, 10 mM Glucose, pH 7.4) resulting in a compound concentration 3 times above the final test concentration and DMSO at 2.7% resulting in 0.9% final DMSO concentration in the assay.
At the assay day cells were washed 3× with assay puffer, 10 μL buffer remained in the wells after washing. 10 μL Ca kit loading buffer (AAT Bioquest) was added to the cells and the plates were incubated with lid for 60 minutes at r.t. 20 μl assay buffer containing 60 μM glycine (20 μM final) and 3 μM glutamate (1 μM final) was added to column 1-23. Fluorescence (indicating the calcium influx as a result of the NR1/NR2B ion channel activation) was read on the FLIPRtetra device for 60 seconds to monitor the glutamate induced effects. After 2 minutes 20 μL of compound or controls (row 1-22) in assay buffer were carefully added to the wells. […] The average of 2 measurements at 5 minutes and 5 min 10 seconds after compound addition is calculated and further used for IC50 calculations. Each assay microtiter plate contained wells (in column 23 or 24) with DMSO controls instead of compound as controls for glycine/glutamate induced fluorescence (high controls) and wells with 1 μM of a reference NR2b NAM as low controls (Compound 22; reference: Layton, Mark E et al, ACS Chemical Neuroscience 2011, 2(7), 352-362).
The output file of the reader contains the well number and measured average fluorescence units. For data evaluation and calculation, the measurement of the low control was set as 0% control and the measurement of the high control was set as 100% control. The IC50 values were calculated using the standard 4 parameter logistic regression formula. Calculation: [y=(a−d)/(1+(x/c)^b)+d], a=low value, d=high value; x=conc M; c=IC50 M; b=slope.

human MDR1 (P-gp) = target: T2, human MDR1 (P-gp) (Homo sapiens, UniProt P08183); assay: MDCK assay MDR-1 (p-GP): permeability across MDCK-MDR1 monolayers; format: in vitro ADME; conditions: for Papp A→B: MDCK-MDR1 monolayers, apical-to-basal, pH 7.4, 1 or 10 μM; for efflux ratio: pH 7.4, MDCK-MDR1, Papp (b-a) divided by Papp (a-b)
T2 construct: expressed in transfected cells; host or cells: MDCKII (Madin-Darby canine kidney) cells
Description: The MDCK assays provide information on the potential of a compound to pass the blood brain barrier. Permeability measurements across polarized, confluent MDCK-MDR1 cell monolayers grown on permeable filter supports are used as an in vitro absorption model: apparent permeability coefficients (PE) of the compounds across the MDCK-MDR1 cell monolayers are measured (pH 7.4, 37° C.) in apical-to-basal (AB) and basal-to-apical (BA) transport direction. The AB permeability (PEAB) represents drug absorption from the blood into the brain and the BA permeability (PEBA) drug efflux from the brain back into the blood via both, passive permeability as well as active transport mechanisms mediated by efflux and uptake transporters that are expressed on the MDCK-MDR1 cells, predominantly by the overexpressed human MDR1. Identical or similar permeabilities in both transport directions indicate passive permeation, vectorial permeability points to additional active transport mechanisms. Higher PEBA than PEAB (PEBA/PEAB >5) indicates the involvement of active efflux mediated by MDR1, which might compromise the goal to achieve sufficient brain exposure. Therefore, this assay provides valuable support for selection of compounds applicable for further in vivo testing. High permeability not limited by efflux at the blood brain barrier is a favourable characteristic for compounds that are to be used for drugs acting primarily in the CNS. Similar concepts are applicable to the MDCK BCRP assay and its interpretation; consequently, to ensure high permeability at the blood brain barrier, it is highly preferred to minimize the efflux (efflux <5) at both MDR1 and BCRP transporters.
Apparent permeability coefficients (Papp) of the compounds across the MDCK-MDR1 monolayers (MDCKII cells transfected with human MDR1 cDNA expression plasmid) are measured in apical-to-basal (AB) and basal-to-apical (BA) direction.
MDCK-MDR1 cells (6×10^5 cells/cm^2) are seeded on filter inserts (Corning, Transwell, polycarbonate, 0.4 μm pore size) and cultured for 9 to 10 days. Compounds dissolved in DMSO stock solution (1-20 mM) are diluted with HTP-4 aqueous buffer (128.13 mM NaCl, 5.36 mM KCl, 1 mM MgSO4, 1.8 mM CaCl2, 4.17 mM NaHCO3, 1.19 mM Na2HPO4, 0.41 mM NaH2PO4, 15 mM HEPES, 20 mM glucose, pH 7.4) supplemented with 0.25% BSA to prepare the transport solutions (final concentration: 1 or 10 μM, final DMSO <=0.5%). The transport solution is applied to the apical or basolateral donor side for measuring A-B or B-A permeability, respectively. The receiver side contains HTP-4 buffer supplemented with 0.25% BSA. Samples are collected at the start and end of experiment from the donor and at various time intervals for up to 2 hours also from the receiver side for concentration measurement by HPLC-MS/MS. Sampled receiver volumes are replaced with fresh receiver solution. Efflux ratio is calculated dividing the Papp (b-a) values by the Papp (a-b) values.

[1] = Metabolic stability in pooled human liver microsomes; format: in vitro ADME; conditions: pH 7.6; pooled human liver microsomes 1 mg/mL, 1 μM compound, 37° C., NADPH; read-out: Half-life - t½ human liver microsomes
Description: Stability in human liver microsomes refers to the susceptibility of compounds to biotransformation in the context of selecting and/or designing drugs with favorable pharmacokinetic properties. The primary site of metabolism for many drugs is the liver. Human liver microsomes contain the cytochrome P450s (CYPs), and thus represent a model system for studying drug metabolization in vitro. Enhanced stability in human liver microsomes is associated with several advantages, including increased bioavailability and adequate half-life, which can enable lower and less frequent dosing of patients. Thus, enhanced stability in human liver microsomes is a favorable characteristic for compounds that are to be used for drugs.
The metabolic degradation of the test compound was assayed at 37° C. with pooled human liver microsomes. The final incubation volume of 60 μl per time point contains TRIS buffer pH 7.6 at room temperature (0.1 M), magnesium chloride (5 mM aqueous solution), microsomal protein (1 mg/mL for human) and the test compound at a final concentration of 1 μM. Following a short preincubation period at 37° C., the reactions were initiated by addition of betanicotinamide adenine dinucleotide phosphate, reduced form (NADPH, 1 mM), and terminated by transferring an aliquot into solvent after different time points. After centrifugation (10000 g, 5 min), an aliquot of the supernatant was assayed by LC-MS/MS for the amount of parent compound. The half-life was determined by the slope of the semi-logarithmic plot of the concentration-time profile.

T2 sequence (P08183 whole entry): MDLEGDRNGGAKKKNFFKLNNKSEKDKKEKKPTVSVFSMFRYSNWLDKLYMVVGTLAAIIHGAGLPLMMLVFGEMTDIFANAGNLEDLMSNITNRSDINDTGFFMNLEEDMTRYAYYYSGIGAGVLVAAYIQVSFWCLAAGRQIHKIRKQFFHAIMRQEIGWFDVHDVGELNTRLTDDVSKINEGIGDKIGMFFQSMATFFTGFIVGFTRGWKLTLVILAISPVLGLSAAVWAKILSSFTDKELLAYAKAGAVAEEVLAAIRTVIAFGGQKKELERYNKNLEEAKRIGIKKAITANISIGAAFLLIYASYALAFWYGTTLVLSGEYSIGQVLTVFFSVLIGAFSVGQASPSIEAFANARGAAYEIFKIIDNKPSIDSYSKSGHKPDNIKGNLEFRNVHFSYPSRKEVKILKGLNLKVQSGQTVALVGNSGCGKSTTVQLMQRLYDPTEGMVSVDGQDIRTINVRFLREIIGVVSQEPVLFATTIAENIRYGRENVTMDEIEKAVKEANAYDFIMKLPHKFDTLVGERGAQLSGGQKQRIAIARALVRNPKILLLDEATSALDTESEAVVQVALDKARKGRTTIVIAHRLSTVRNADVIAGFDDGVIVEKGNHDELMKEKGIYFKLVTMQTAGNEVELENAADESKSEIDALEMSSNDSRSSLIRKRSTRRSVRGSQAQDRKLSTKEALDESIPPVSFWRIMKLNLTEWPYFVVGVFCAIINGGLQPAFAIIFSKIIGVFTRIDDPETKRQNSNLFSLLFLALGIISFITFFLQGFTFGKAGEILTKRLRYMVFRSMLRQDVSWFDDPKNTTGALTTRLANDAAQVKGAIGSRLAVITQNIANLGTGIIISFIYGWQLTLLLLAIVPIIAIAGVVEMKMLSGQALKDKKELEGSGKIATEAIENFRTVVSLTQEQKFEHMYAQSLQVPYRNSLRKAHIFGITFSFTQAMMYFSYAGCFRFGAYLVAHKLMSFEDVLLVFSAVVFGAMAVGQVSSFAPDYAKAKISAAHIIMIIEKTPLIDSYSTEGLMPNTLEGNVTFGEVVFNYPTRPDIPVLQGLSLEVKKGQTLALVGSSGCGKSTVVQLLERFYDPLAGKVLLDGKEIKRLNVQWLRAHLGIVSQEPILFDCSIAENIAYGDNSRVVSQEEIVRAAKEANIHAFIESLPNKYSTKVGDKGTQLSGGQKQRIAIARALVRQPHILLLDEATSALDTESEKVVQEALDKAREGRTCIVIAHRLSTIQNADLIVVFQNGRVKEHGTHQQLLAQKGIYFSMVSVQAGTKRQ
T1 sequence (Q13224 27-1484, other chains not shown): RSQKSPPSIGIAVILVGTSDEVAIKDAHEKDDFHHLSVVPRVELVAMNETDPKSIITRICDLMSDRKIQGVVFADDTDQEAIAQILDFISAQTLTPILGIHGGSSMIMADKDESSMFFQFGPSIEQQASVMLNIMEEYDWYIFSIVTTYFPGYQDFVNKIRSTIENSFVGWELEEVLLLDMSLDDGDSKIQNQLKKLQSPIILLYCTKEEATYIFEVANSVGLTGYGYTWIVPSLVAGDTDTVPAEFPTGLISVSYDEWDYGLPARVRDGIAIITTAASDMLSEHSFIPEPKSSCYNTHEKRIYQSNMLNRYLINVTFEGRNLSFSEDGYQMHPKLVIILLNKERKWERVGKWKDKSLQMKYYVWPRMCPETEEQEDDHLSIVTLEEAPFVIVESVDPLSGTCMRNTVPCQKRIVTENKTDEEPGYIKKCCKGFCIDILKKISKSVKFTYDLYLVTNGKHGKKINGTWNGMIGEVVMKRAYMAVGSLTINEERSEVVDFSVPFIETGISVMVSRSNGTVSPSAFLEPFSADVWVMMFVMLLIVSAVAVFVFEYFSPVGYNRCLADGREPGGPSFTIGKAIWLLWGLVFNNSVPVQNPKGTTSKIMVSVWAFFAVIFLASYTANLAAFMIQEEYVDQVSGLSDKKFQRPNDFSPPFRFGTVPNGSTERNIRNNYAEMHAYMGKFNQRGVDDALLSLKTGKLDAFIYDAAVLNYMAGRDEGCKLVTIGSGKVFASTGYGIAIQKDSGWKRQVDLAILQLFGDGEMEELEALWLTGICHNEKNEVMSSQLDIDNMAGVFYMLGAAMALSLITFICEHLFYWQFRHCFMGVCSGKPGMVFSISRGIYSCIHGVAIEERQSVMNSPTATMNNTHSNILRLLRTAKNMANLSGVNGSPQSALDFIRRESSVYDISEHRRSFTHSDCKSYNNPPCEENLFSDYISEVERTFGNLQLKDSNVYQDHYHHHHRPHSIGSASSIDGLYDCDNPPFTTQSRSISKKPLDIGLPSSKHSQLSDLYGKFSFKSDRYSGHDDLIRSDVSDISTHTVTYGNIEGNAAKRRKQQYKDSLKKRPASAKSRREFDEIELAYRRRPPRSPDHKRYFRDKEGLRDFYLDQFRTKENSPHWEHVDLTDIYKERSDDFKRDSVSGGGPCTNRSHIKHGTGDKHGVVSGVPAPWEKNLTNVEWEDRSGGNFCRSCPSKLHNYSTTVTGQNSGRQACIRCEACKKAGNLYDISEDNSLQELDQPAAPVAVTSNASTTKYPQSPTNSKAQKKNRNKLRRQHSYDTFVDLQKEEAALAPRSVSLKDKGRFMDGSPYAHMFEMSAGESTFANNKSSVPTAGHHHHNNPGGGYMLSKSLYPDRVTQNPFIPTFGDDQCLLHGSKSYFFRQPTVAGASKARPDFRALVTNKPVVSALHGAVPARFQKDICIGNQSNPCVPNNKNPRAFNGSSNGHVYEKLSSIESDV

IC50 (NMDA NR1/NR2B receptor) [nM] | Papp A→B (human MDR1 (P-gp)) [×10⁻⁶ cm/s] | efflux ratio (human MDR1 (P-gp)) | half-life at 1 µM [1] [min] | SMILES
748 |  |  |  | O=C(OCc1ccc(F)c(F)c1)N1CCO[C@H](c2nc3cccnc3[nH]2)C1 [Example 24]
477 |  |  |  | O=C(OCc1ccc(Cl)c(F)c1)N1CCO[C@H](c2nc3cccnc3[nH]2)C1 [Example 25]
293 | 49 | 1.16 | 22 | Cc1cccc(COC(=O)N2CCO[C@H](c3nc4cccnc4[nH]3)C2)c1 [Example 9]
475 | 44.4 | 1.48 | 40 | Cc1ccnc2[nH]c([C@@H]3CN(C(=O)OCc4ccc(F)cc4)CCO3)nc12 [Example 6]
228 |  |  | 24 | Cc1cc(F)ccc1COC(=O)N1CCO[C@H](c2nc3cccnc3[nH]2)C1 [Example 4]
